Non-standard residues stand in square brackets, D forms with d. Residues, ends and D or L forms follow the SMILES beside them. Phe(4-Cl) = N[C@@H](Cc1ccc(Cl)cc1)C(=O)O; Phe(4-I) = N[C@@H](Cc1ccc(I)cc1)C(=O)O; NMeK = CN[C@@H](CCCCN)C(=O)O; Nle = CCCC[C@H](N)C(=O)O; dAbu = CC[C@@H](N)C(=O)O; Aib = CC(C)(N)C(=O)O
Target: human MC4R (Homo sapiens, UniProt P32245)
Experiment: Intracellular cAMP levels in live cells, MC3R selectivity relative to MC4R
Assay type: cell-based
Conditions: cAMP assays in human MC3R and human MC4R stable cell lines
Experimental: The stable cell lines were grown and maintained in selection media consisting of Dulbecco's modified Eagle media (DMEM) with 4.5 g/l D-glucose, and 4 mM L-glutamine (Thermo Fisher Scientific, Waltham, MA), supplemented with 10% fetal bovine serum, 100 units/ml penicillin, 100 μg/ml streptomycin, 2.5 μg/ml amphotericin B, 200 μg/ml hygromycin B (for positive selection of the GScAMP22f luciferase reporter), and Geneticin™ (G418) 700 μg/ml (for MC3R or MC4R selection). Actual serum concentration during the assay is estimated to be about 1%. Cell line identity is routinely verified by qPCR and MC3R- and MC4R-specific oligonucleotides.
The assay for the determination of the CAMP response in live cells was described previously. […] Ccells were seeded at a density of 20,000 cells per well using 384-well poly-D lysine-coated, clear bottom, and black-wall assay plates (Corning Inc. Corning, NJ). Cells were allowed to attach to the plates for 18 to 24 h after which growth media was removed and 20 ul of 4% D-luciferin (Promega) in CO2 independent, serum-free medium (Thermo Fisher Scientific) was added to each well. […] Intracellular cAMP levels were measured using an FDSS 7000EX Functional Drug Screening System (Hamamatsu Photonics, Hamamatsu, Japan) in the Center for Chemical Genomics at the Life Sciences Institute. This instrument allowed the in-line addition of test-peptides and receptor agonists while simultaneously acquiring the luminescence signal from live cells. […] A submaximal forskolin (20 μM) concentration was also included to serve as a normalization reference to account for cell number variations and differences in assay transducer efficiency between cell lines.
With this set up it was possible to evaluate the direct agonist effect of the test-peptides on the MC3R and MC4R cell lines during measurement window 1, while the antagonist profile in the presence of EC90 α-MSH was determined on measurement window 2. […] EC50 or IC50 potency values were determined by non-linear regression by fitting the data to a sigmoid four-parameter variable slope model using the GraphPad Prism version 8.4 software package (San Diego CA).

human MC4R, sequence (P32245 whole entry): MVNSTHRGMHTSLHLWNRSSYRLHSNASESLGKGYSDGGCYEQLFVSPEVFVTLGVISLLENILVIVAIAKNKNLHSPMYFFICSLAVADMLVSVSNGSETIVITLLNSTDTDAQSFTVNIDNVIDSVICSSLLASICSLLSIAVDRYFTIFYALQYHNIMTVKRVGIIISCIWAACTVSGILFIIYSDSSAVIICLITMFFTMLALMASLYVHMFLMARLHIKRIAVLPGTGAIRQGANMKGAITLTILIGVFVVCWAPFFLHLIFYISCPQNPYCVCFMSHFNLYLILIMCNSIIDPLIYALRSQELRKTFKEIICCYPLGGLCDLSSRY

SMILES | MC3R selectivity (relative to MC4R)
CC[C@@H](NC(=O)[C@H](CCC(=O)O)NC(=O)[C@@H](NC(=O)[C@H](Cc1ccc(O)cc1)NC(C)=O)C(C)C)C(=O)N[C@@H](Cc1c[nH]cn1)C(=O)N[C@@H](Cc1ccc(I)cc1)C(=O)N[C@@H](CCCNC(=N)N)C(=O)N[C@H](Cc1c[nH]c2ccccc12)C(=O)N[C@@H](CC(=O)O)C(=O)N[C@@H](CCCNC(=N)N)C(=O)N[C@@H](Cc1ccccc1)C(=O)NCC(=O)O [CTX-1194, Tyr-Val-Glu-D-Abu-His-Phe(4-I)-Arg-D-Trp-Asp-Arg-Phe-Gly] (Ac-YVE[dAbu]H[Phe(4-I)]R[dW]DRFG-OH) | 49
CCCC[C@H](NC(C)=O)C(=O)N[C@H](C)C(=O)N(C)[C@@H](CCCCN)C(=O)N[C@@H](Cc1ccccc1)C(=O)N[C@@H](CCCNC(=N)N)C(=O)N[C@H](Cc1c[nH]c2ccccc12)C(=O)N[C@@H](CC(=O)O)C(=O)N[C@@H](CCCNC(=N)N)C(=O)N[C@@H](Cc1ccccc1)C(=O)NCC(=O)O [CTX-1189, Nle-D-Ala-NMe-Lys-Phe-Arg-D-Trp-Asp-Arg-Phe-Gly] (Ac-[Nle][dA][NMeK]FR[dW]DRFG-OH) | 1
CCCC[C@H](NC(=O)[C@@H](NC(=O)[C@@H](N)Cc1ccc(O)cc1)C(C)C)C(=O)N[C@H](C)C(=O)N[C@@H](Cc1c[nH]cn1)C(=O)N[C@H](Cc1ccccc1)C(=O)N[C@@H](CCCNC(=N)N)C(=O)N[C@H](Cc1c[nH]c2ccccc12)C(=O)N[C@@H](CC(=O)O)C(=O)N[C@@H](CCCNC(=N)N)C(=O)N[C@@H](Cc1ccccc1)C(=O)NCC(=O)O [CTX-1104, Tyr-Val-Nle-D-Ala-His-D-Phe-Arg-D-Trp-Asp-Arg-Phe-Gly] (H-YV[Nle][dA]H[dF]R[dW]DRFG-OH) | 27
CCCC[C@H](NC(C)=O)C(=O)N[C@H](C)C(=O)N[C@@H](Cc1c[nH]cn1)C(=O)N[C@@H](Cc1ccc(I)cc1)C(=O)N[C@@H](CCCNC(=N)N)C(=O)N[C@H](Cc1c[nH]c2ccccc12)C(=O)N[C@@H](CC(=O)O)C(=O)N[C@@H](CCCNC(=N)N)C(N)=O [CTX-1170, Nle-D-Ala-His-Phe(4-I)-Arg-D-Trp-Asp-Arg] (Ac-[Nle][dA]H[Phe(4-I)]R[dW]DR-NH2) | 67
CCCC[C@H](NC(C)=O)C(=O)N[C@H](C)C(=O)N[C@@H](Cc1c[nH]cn1)C(=O)N[C@@H](Cc1ccc(I)cc1)C(=O)N[C@@H](CCCNC(=N)N)C(=O)N[C@H](Cc1ccccc1)C(=O)N[C@@H](CC(=O)O)C(=O)N[C@@H](CCCNC(=N)N)C(=O)N[C@@H](Cc1ccccc1)C(=O)NCC(=O)O [CTX-1503, Nle-D-Ala-His-Phe(4-I)-Arg-D-Phe-Asp-Arg-Phe-Gly] (Ac-[Nle][dA]H[Phe(4-I)]R[dF]DRFG-OH) | 214
CCCC[C@H](NC(C)=O)C(=O)N[C@H](C)C(=O)N[C@@H](Cc1c[nH]cn1)C(=O)N[C@@H](Cc1ccc(Cl)cc1)C(=O)N[C@@H](CCCNC(=N)N)C(=O)N[C@H](Cc1c[nH]c2ccccc12)C(=O)N[C@@H](CC(=O)O)C(=O)N[C@@H](CCCNC(=N)N)C(=O)N[C@@H](Cc1ccccc1)C(=O)NCC(=O)O [CTX-1166, Nle-D-Ala-His-Phe(4-Cl)-Arg-D-Trp-Asp-Arg-Phe-Gly] (Ac-[Nle][dA]H[Phe(4-Cl)]R[dW]DRFG-OH) | 3099
CCCC[C@H](NC(=O)[C@@H](NC(=O)[C@@H](N)Cc1ccc(O)cc1)C(C)C)C(=O)NC(C)(C)C(=O)N[C@@H](Cc1c[nH]cn1)C(=O)N[C@@H](Cc1ccccc1)C(=O)N[C@@H](CCCNC(=N)N)C(=O)N[C@H](Cc1c[nH]c2ccccc12)C(=O)N[C@@H](CC(=O)O)C(N)=O [CTX-1130, Tyr-Val-Nle-Aib-His-Phe-Arg-D-Trp-Asp] (H-YV[Nle][Aib]HFR[dW]D-NH2) | 58

— patent US20240287154A1, “MC3R AGONIST PEPTIDES” (The Regents of the University of Michigan, priority 2021, published 2024)
